# Source: PubChem BioAssay AID328 (DTP/NCI, 2004)
# Several values for one entry are separate records, joined by “and”; a condition that tells them apart may be missing. Identical values can stand only once. Toxic doses and inconclusive results are not listed.
# Tested on: BDF1 mice, P388 leukemia ip, median survival T/C
# Test: NCI In Vivo Anticancer Drug Screen. Data for tumor model P388 Leukemia (intraperitoneal) in B6D2F1 (BDF1) mice
# Details: endpoint: median survival time, higher = longer survival
# Method in brief: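 Transplantable tumour in mice; compound vs vehicle dosing; survival scored; ratio of treated to control reported.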
# [1] = dose: 100.0 mg/kg/injection, schedule: Q04DX003 (ip), vehicle: saline with Tween-80
# [2] = dose: 200.0 mg/kg/injection, schedule: Q04DX003 (ip), vehicle: saline with Tween-80
# [3] = dose: 400.0 mg/kg/injection, schedule: Q04DX003 (ip), vehicle: saline with Tween-80
# [4] = dose: 50.0 mg/kg/injection, schedule: Q01DX009 (ip), vehicle: saline
# [5] = dose: 100.0 mg/kg/injection, schedule: Q01DX009 (ip), vehicle: saline
# [6] = dose: 100.0 mg/kg/injection, schedule: Q04DX003 (ip), vehicle: Klucel (hydroxypropylcellulose) (HPC)
# [7] = dose: 200.0 mg/kg/injection, schedule: Q04DX003 (ip), vehicle: Klucel (hydroxypropylcellulose) (HPC)
# [8] = dose: 400.0 mg/kg/injection, schedule: Q04DX003 (ip), vehicle: Klucel (hydroxypropylcellulose) (HPC)
# [9] = dose: 50.0 mg/kg/injection, schedule: Q01DX009 (ip), vehicle: saline with Tween-80
# [10] = dose: 100.0 mg/kg/injection, schedule: Q01DX009 (ip), vehicle: saline with Tween-80
# [11] = dose: 200.0 mg/kg/injection, schedule: Q01DX009 (ip), vehicle: saline with Tween-80
# [12] = dose: 25.0 mg/kg/injection, schedule: Q01DX009 (ip), vehicle: saline
# [13] = dose: 25.0 mg/kg/injection, schedule: Q04DX003 (ip), vehicle: saline
# [14] = dose: 50.0 mg/kg/injection, schedule: Q04DX003 (ip), vehicle: saline
# [15] = dose: 100.0 mg/kg/injection, schedule: Q04DX003 (ip), vehicle: saline
# [16] = dose: 400.0 mg/kg/injection, schedule: Q01DX009 (ip), vehicle: saline with Tween-80
# [17] = dose: 200.0 mg/kg/injection, schedule: Q01DX009 (ip), vehicle: saline
# [18] = dose: 200.0 mg/kg/injection, schedule: Q04DX003 (ip), vehicle: saline
# [19] = dose: 400.0 mg/kg/injection, schedule: Q01DX009 (ip), vehicle: saline
# [20] = dose: 400.0 mg/kg/injection, schedule: Q04DX003 (ip), vehicle: saline
# [21] = dose: 25.0 mg/kg/injection, schedule: Q01DX009 (ip), vehicle: saline with Tween-80
structure (smiles),measurement,setting,value
CC(C)N(C(C)C)C(C)CCNc1c2ccccc2nc2cc(Cl)ccc12 (stereo not drawn),T/C,"dose: 6.0 mg/kg/injection, schedule: Q01DX009 (ip), vehicle: saline",100 % of control
same,T/C,"dose: 12.0 mg/kg/injection, schedule: Q01DX009 (ip), vehicle: saline",105 % of control
same,T/C,"dose: 24.0 mg/kg/injection, schedule: Q01DX009 (ip), vehicle: saline",100 % of control
O=C1C(Cl)=C(N2CC2)C(=O)C(Cl)=C1N1CC1,T/C,"dose: 1.25 mg/kg/injection, schedule: Q01DX009 (ip), vehicle: saline with Tween-80",172 % of control
same,T/C,"dose: 2.5 mg/kg/injection, schedule: Q01DX009 (ip), vehicle: Klucel (hydroxypropylcellulose) (HPC)",150 % of control
same,T/C,"dose: 2.5 mg/kg/injection, schedule: Q01DX009 (ip), vehicle: saline with Tween-80",169 % of control
same,T/C,"dose: 5.0 mg/kg/injection, schedule: Q01DX009 (ip), vehicle: Klucel (hydroxypropylcellulose) (HPC)",157 % of control and 165 % of control
same,T/C,"dose: 5.0 mg/kg/injection, schedule: Q01DX009 (ip), vehicle: saline with Tween-80",172 % of control
same,T/C,"dose: 5.0 mg/kg/injection, schedule: Q01DX009 (ip), vehicle: saline",155 % of control and 165 % of control
same,T/C,"dose: 10.0 mg/kg/injection, schedule: Q01DX009 (ip), vehicle: Klucel (hydroxypropylcellulose) (HPC)",123 % of control
same,T/C,"dose: 10.0 mg/kg/injection, schedule: Q01DX009 (ip), vehicle: saline with Tween-80",169 % of control
same,T/C,"dose: 10.0 mg/kg/injection, schedule: Q01DX009 (ip), vehicle: saline",163 % of control and 200 % of control
CC1CCOS(=O)O1 (stereo not drawn),T/C,"dose: 10.0 mg/kg/injection, schedule: Q01DX010 (ip), vehicle: saline",100 % of control
same,T/C,"dose: 20.0 mg/kg/injection, schedule: Q01DX010 (ip), vehicle: saline",95 % of control and 104 % of control
same,T/C,"dose: 40.0 mg/kg/injection, schedule: Q01DX010 (ip), vehicle: saline",100 % of control and 104 % of control
CCOC(=O)N1Cc2cc3cc(OC)c(OC)cc3nc2C1,T/C,[1],105 % of control
same,T/C,[2],90 % of control
same,T/C,[3],105 % of control
O/N=C(\C[n+]1ccccc1)c1ccc2ccccc2c1,T/C,"dose: 1.56 mg/kg/injection, schedule: Q01DX009 (ip), vehicle: Klucel (hydroxypropylcellulose) (HPC)",113 % of control
same,T/C,"dose: 3.12 mg/kg/injection, schedule: Q01DX009 (ip), vehicle: Klucel (hydroxypropylcellulose) (HPC)",120 % of control
same,T/C,"dose: 3.12 mg/kg/injection, schedule: Q01DX009 (ip), vehicle: saline",107 % of control
same,T/C,"dose: 6.25 mg/kg/injection, schedule: Q01DX009 (ip), vehicle: Klucel (hydroxypropylcellulose) (HPC)",122 % of control
same,T/C,"dose: 6.25 mg/kg/injection, schedule: Q01DX009 (ip), vehicle: saline",120 % of control
same,T/C,[4],106 % of control
CN(C)Nc1ncnc2nc[nH]c12,T/C,[4],95 % of control
same,T/C,[5],91 % of control
same,T/C,[1],100 % of control
same,T/C,[2],114 % of control
C[C@]12CC[C@@H]3c4ccc(O)cc4CC[C@H]3[C@@H]1C[C@@H](O)[C@@H]2O,T/C,"dose: 12.5 mg/kg/injection, schedule: Q01DX009 (ip), vehicle: Klucel (hydroxypropylcellulose) (HPC)",90 % of control
same,T/C,"dose: 25.0 mg/kg/injection, schedule: Q01DX009 (ip), vehicle: Klucel (hydroxypropylcellulose) (HPC)",100 % of control
same,T/C,"dose: 50.0 mg/kg/injection, schedule: Q01DX009 (ip), vehicle: Klucel (hydroxypropylcellulose) (HPC)",109 % of control
same,T/C,[6],104 % of control
same,T/C,[7],104 % of control
same,T/C,[8],100 % of control
CC1CC2CCCC(O)=C2C(=O)O1 (stereo not drawn),T/C,"dose: 37.0 mg/kg/injection, schedule: Q01DX010 (ip), vehicle: saline",95 % of control
same,T/C,"dose: 75.0 mg/kg/injection, schedule: Q01DX010 (ip), vehicle: saline",100 % of control
same,T/C,"dose: 150.0 mg/kg/injection, schedule: Q01DX010 (ip), vehicle: saline",105 % of control
N=C1CCCC1C(=S)SCCC(N)=O (stereo not drawn),T/C,[9],99 % of control
same,T/C,[10],99 % of control
same,T/C,[11],94 % of control
CC(/C(=N/N(C)C)c1ccccc1)C(C)/C(=N\N(C)C)c1ccccc1 (stereo not drawn),T/C,"dose: 100.0 mg/kg/injection, schedule: Q04DX002 (ip), vehicle: saline with Tween-80",97 % of control
same,T/C,"dose: 200.0 mg/kg/injection, schedule: Q04DX002 (ip), vehicle: saline with Tween-80",110 % of control
same,T/C,"dose: 400.0 mg/kg/injection, schedule: Q04DX002 (ip), vehicle: saline with Tween-80",112 % of control
C(/C=C\c1ccccc1)=Nc1ccccc1,T/C,[12],91 % of control
same,T/C,[13],95 % of control
same,T/C,[4],95 % of control
same,T/C,[14],100 % of control
same,T/C,"dose: 88.0 mg/kg/injection, schedule: Q01DX009 (ip), vehicle: saline with Tween-80",105 % of control
same,T/C,[5],104 % of control
same,T/C,[1],104 % of control
same,T/C,[15],100 % of control
same,T/C,"dose: 132.0 mg/kg/injection, schedule: Q01DX009 (ip), vehicle: saline with Tween-80",110 % of control
same,T/C,[2],118 % of control
same,T/C,"dose: 300.0 mg/kg/injection, schedule: Q01DX009 (ip), vehicle: saline with Tween-80",110 % of control
same,T/C,[16],150 % of control
same,T/C,[3],118 % of control
CCCCNC=O,T/C,[12],91 % of control
same,T/C,[4],100 % of control
same,T/C,"dose: 100.0 mg/kg/injection, schedule: Q01DX001 (ip), vehicle: saline",100 % of control
same,T/C,[5],100 % of control and 104 % of control
same,T/C,[15],95 % of control
same,T/C,"dose: 200.0 mg/kg/injection, schedule: Q01DX001 (ip), vehicle: saline",100 % of control
same,T/C,[17],104 % of control
same,T/C,[18],95 % of control
same,T/C,"dose: 400.0 mg/kg/injection, schedule: Q01DX001 (ip), vehicle: saline",100 % of control
same,T/C,[19],104 % of control
same,T/C,[20],104 % of control
C[S+](C)N(c1ccc(Cl)cc1)C(C)(C)C,T/C,"dose: 25.0 mg/kg/injection, schedule: Q01DX001 (ip), vehicle: saline",104 % of control
same,T/C,"dose: 50.0 mg/kg/injection, schedule: Q01DX001 (ip), vehicle: saline",111 % of control
S=c1[nH]ncn1-c1ccccc1,T/C,"dose: 6.25 mg/kg/injection, schedule: Q01DX009 (ip), vehicle: saline with Tween-80",99 % of control
same,T/C,"dose: 12.5 mg/kg/injection, schedule: Q01DX009 (ip), vehicle: saline with Tween-80",99 % of control
same,T/C,[21],99 % of control
same,T/C,[9],96 % of control
O=c1oc(-c2ccc(C[n+]3ccc4ccccc4c3)cc2)nc2ccccc12,T/C,"dose: 50.0 mg/kg/injection, schedule: Q01DX005 (ip), vehicle: saline with Tween-80",100 % of control
same,T/C,"dose: 100.0 mg/kg/injection, schedule: Q01DX005 (ip), vehicle: saline with Tween-80",99 % of control
same,T/C,"dose: 200.0 mg/kg/injection, schedule: Q01DX005 (ip), vehicle: saline with Tween-80",104 % of control
CC(C)=NN1C(=O)c2ccccc2C1=O,T/C,[21],101 % of control
same,T/C,[9],101 % of control
same,T/C,[10],100 % of control
COc1c(Br)cc(Br)cc1Br,T/C,[6],108 % of control
same,T/C,[7],100 % of control
same,T/C,[8],100 % of control
CN(C)c1ccc(Cc2ccc(N(C)C)nc2)cn1,T/C,"dose: 100.0 mg/kg/injection, schedule: Q01DX009 (ip), vehicle: Klucel (hydroxypropylcellulose) (HPC)",100 % of control
same,T/C,[6],95 % of control
same,T/C,"dose: 200.0 mg/kg/injection, schedule: Q01DX009 (ip), vehicle: Klucel (hydroxypropylcellulose) (HPC)",110 % of control
same,T/C,[7],100 % of control
same,T/C,"dose: 400.0 mg/kg/injection, schedule: Q01DX009 (ip), vehicle: Klucel (hydroxypropylcellulose) (HPC)",100 % of control
same,T/C,[8],95 % of control
Cc1c[n+]([O-])cc(C)c1[N+](=O)[O-],T/C,[21],100 % of control
same,T/C,[9],90 % of control
same,T/C,[10],90 % of control
same,T/C,[11],100 % of control
same,T/C,[16],100 % of control
O=C(c1cc(Cl)cc(Cl)c1)N1CC1,T/C,[12],106 % of control
same,T/C,[13],100 % of control
same,T/C,[4],113 % of control
same,T/C,[14],100 % of control
same,T/C,[5],103 % of control
same,T/C,[15],98 % of control
same,T/C,[17],113 % of control
same,T/C,[18],114 % of control
same,T/C,[19],113 % of control
same,T/C,[20],106 % of control
